Data reported in patent US20230416240A1, “KAT6 TARGETING COMPOUNDS” (Prelude Therapeutics Incorporated, priority 2022, published 2023).

What was measured:
HiBit tagged KAT6A = biological target: T1, HiBit tagged KAT6A (Homo sapiens, UniProt Q92794); experiment: HiBit KAT6A Degradation Assessment; assay type: cell-based; details: HeLa cells with HiBit tagged KAT6A, 18 h of treatment, 9-point serial dilution
T1 construct: host or cells: HeLa
Method: The degradation activity of compounds was evaluated by measuring levels of KAT6A protein using the HiBiT system. These studies were conducted in HeLa cells with a HiBit tagged KAT6A. Cells were maintained in a 37° C. incubator at 5% CO2 in EMEM (ATCC, 30-2003) supplemented with 10% v/v FBS (Gibco, 26140-079) and 1% penicillin streptomycin. Cells were seeded in 384-well plates at a density of 2,000 cells/well. Compounds dissolved in DMSO were added in 9-point serial dilution. After 18 h of treatment, KAT6A levels were measured using the Nano-Glo® HiBiT Lytic Detection System (Promega catalog number N3030) per manufacturer's instructions. Luminescence signal was measured with a multimode plate reader (Envision 2105, Perkin Elmer). Luminescence values were normalized to background and DMSO controls to quantify KAT6A for each condition. Results were analyzed, and DC50 and Dmax values obtained using a four-parameter logistic curve fit.

KAT6A = biological target: T2, KAT6A (Homo sapiens, UniProt Q92794); experiment: Western Blot KAT6A Degradation Assessment; assay type: cell-based; details: 0.1 μM compound, 24 hours of treatment, HCC1954 cell line, KAT6A normalized to GAPDH and DMSO
T2 construct: These studies were conducted in the HCC1954 cell line which harbors a KAT6A copy number amplification; endogenous in cells; host or cells: HCC1954
Method: The activity of compounds was evaluated by measuring KAT6A protein levels as a readout of KAT6A degradation ability using western blot. These studies were conducted in the HCC1954 cell line which harbors a KAT6A copy number amplification. Cells were maintained in a 37° C. incubator at 5% CO2 in the following media: RPMI 1640, ATCC© Modification (Gibco, A10491-01) supplemented with 10% v/v FBS (Gibco, 26140-079) and 1% penicillin streptomycin (Gibco, 15140-122). Cells were seeded in 6-well plates at a density of 300,000 cells/well and allowed to attach overnight in an incubator. Compounds dissolved in DMSO were prepared at 1000× the desired final concentration such that the final percentage of DMSO was 0.1%. After 24 hours of treatment, cells were washed with phosphate buffered saline (PBS) (Corning, 21-040-CV), detached with trypsin-EDTA (Gibco, #25200-056), and pelleted in complete RPMI media in a microcentrifuge for 5 min at 1500 rpm. Protein was extracted from cell pellets by re-suspending in 15 uL PBS before adding 45 uL of lysis buffer composed of 4% SDS, 1× protease and phosphatase inhibitors, and 1 mM PMSF (Cell Signaling Technology, #8553S). Lysates were transferred to homogenizer columns (Omega Biotek, #HCR003) and centrifuged for 1.5 min at 12,000 rpm.
Homogenized lysates were quantified by BCA assay (ThermoScientific, Pierce BCA Protein Assay, #23223, #23224) as per manufacturer instructions. Samples were then diluted in 4× Laemmli buffer (Biorad, #1610747) to a 1× solution which was boiled at 95° C. for 5 minutes. To assess KAT6A protein expression, samples were run on 26 well gels (Biorad, 4-15% Criterion TGX Precast gels, #5671085) at 120V for approximately 1 hour. Protein was transferred to low-fluorescence PVDF membranes (Millipore Sigma, #IPFL00010) using Trans-Blot Turbo Transfer System (Biorad). Membranes were then probed with KAT6A (Cell Signaling Technology, #78462) and GAPDH (Cell Signaling Technology, #5174S) primary, and fluorescently tagged secondary antibodies (LI-COR, IRDye 800CW Goat anti-rabbit #926-32211; IRDye 680RD Goat anti-mouse #926-68070) at manufacturer recommended conditions using the iBind Flex western device (Thermofisher, SLF2000). Membranes were washed briefly in water and scanned with a LI-COR Odyssey CLx. Quantification of bands was assessed using Image Studio Ver 5.2. to normalize KAT6A expression to GAPDH loading controls before representing KAT6A expression as a percentage of that observed in DMSO.

T1 sequence (Q92794 whole entry): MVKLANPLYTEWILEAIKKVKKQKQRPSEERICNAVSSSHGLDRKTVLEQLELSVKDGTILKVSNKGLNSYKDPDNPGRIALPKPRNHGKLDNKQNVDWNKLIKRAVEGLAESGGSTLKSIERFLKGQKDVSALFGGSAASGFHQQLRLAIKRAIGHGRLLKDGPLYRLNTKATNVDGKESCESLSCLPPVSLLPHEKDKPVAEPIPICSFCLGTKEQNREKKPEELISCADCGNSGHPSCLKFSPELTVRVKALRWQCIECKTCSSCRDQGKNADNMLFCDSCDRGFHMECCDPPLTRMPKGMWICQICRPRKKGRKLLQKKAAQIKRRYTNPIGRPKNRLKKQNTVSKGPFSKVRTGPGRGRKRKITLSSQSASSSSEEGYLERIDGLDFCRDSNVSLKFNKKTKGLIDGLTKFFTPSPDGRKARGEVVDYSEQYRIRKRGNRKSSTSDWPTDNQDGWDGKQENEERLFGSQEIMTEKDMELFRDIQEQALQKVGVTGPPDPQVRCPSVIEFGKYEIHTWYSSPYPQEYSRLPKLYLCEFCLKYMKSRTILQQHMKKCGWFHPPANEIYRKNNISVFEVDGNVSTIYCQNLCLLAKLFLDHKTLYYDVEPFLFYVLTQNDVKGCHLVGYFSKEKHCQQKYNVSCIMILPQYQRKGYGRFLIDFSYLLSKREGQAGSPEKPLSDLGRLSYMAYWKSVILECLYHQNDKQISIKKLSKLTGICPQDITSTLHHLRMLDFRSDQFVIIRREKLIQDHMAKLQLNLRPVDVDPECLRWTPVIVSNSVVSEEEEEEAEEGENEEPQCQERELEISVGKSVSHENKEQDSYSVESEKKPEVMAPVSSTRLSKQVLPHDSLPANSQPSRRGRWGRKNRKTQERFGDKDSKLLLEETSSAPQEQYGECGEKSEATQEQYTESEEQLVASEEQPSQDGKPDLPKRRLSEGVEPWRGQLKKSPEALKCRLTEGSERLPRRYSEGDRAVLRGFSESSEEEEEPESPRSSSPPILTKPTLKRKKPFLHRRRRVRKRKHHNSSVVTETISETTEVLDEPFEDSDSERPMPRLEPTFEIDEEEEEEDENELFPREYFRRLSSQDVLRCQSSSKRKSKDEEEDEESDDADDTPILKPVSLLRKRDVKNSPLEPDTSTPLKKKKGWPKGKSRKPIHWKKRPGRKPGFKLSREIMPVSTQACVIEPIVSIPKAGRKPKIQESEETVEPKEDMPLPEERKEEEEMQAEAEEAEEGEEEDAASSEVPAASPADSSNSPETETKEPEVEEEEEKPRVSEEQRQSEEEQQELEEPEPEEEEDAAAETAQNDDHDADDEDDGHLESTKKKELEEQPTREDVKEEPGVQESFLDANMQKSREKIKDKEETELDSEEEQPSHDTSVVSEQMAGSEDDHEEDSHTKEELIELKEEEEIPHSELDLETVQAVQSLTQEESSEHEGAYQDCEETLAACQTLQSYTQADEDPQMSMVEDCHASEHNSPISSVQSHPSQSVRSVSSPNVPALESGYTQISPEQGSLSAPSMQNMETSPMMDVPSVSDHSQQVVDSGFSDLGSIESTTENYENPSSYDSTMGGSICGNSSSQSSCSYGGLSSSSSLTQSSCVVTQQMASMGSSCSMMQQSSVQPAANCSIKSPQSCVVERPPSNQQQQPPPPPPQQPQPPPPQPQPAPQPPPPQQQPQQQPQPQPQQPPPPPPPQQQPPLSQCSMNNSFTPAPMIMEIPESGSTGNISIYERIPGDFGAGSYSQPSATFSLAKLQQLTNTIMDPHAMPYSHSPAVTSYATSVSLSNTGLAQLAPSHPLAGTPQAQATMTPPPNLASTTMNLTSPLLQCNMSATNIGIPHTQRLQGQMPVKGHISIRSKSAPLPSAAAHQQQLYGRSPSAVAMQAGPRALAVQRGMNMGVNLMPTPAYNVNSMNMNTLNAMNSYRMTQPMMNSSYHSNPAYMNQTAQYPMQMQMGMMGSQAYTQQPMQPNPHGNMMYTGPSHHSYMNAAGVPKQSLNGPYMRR
T2 sequence (Q92794 whole entry): as above

Row | SMILES | DC50 (HiBit tagged KAT6A) [nM] | Dmax (HiBit tagged KAT6A) [%] | inhibition at 0.1 µM (KAT6A) [%]
1 | COc1cc(Cn2cccn2)cc2onc(NS(=O)(=O)c3cccc(N4CCN(CC5CCN(c6ccc7c(c6)CN(C6CCC(=O)NC6=O)C7=O)C5)CC4)c3)c12 (stereo not shown) [Example 10, 3-[4-[[1-[2-(2,6-Dioxopiperidin-3-yl)-1-oxo-3H-isoindol-5-yl]pyrrolidin-3-yl]methyl]piperazin-1-yl]-N-[4-methoxy-6-(pyrazol-1-ylmethyl)-1,2-benzoxazol-3-yl]benzenesulfonamide] | – | 25 to 50 | 50 to 75
2 | COc1cc(Cn2cccn2)cc2onc(NS(=O)(=O)c3cccc(N4CCN(C5CC6(CCN(c7ccc8c(c7)C(=O)N(C7CCC(=O)NC7=O)C8=O)CC6)C5)CC4)c3)c12 (stereo not shown) [Example 4, 3-[4-[7-[2-(2,6-Dioxopiperidin-3-yl)-1,3-dioxoisoindol-5-yl]-7-azaspiro[3.5]nonan-2-yl]piperazin-1-yl]-N-[4-methoxy-6-(pyrazol-1-ylmethyl)-1,2-benzoxazol-3-yl]benzenesulfonamide] | 10 to 100 | > 75 | 50 to 75
3 | COc1cc(Cn2cccn2)cc2onc(NS(=O)(=O)c3cccc(N4CC5(CN(CC6CCN(c7ccc8c(c7)C(=O)N(C7CCC(=O)NC7=O)C8=O)C6)C5)C4)c3)c12 (stereo not shown) [Example 11, 3-[6-[[1-[2-(2,6-dioxopiperidin-3-yl)-1,3-dioxoisoindol-5-yl]pyrrolidin-3-yl]methyl]-2,6-diazaspiro[3.3]heptan-2-yl]-N-[4-methoxy-6-(pyrazol-1-ylmethyl)-1,2-benzoxazol-3-yl]benzenesulfonamide] | 10 to 100 | 50 to 75 | 50 to 75
4 | COc1cc(Cn2cccn2)cc2onc(NS(=O)(=O)c3cccc(N4CCC(CN5CCN(c6ccc7c(c6)c6cccnc6n7C6CCC(=O)NC6=O)CC5)C4)c3)c12 (stereo not shown) [Example 6, 3-[3-[[4-[9-(2,6-Dioxopiperidin-3-yl)pyrido[2,3-b]indol-6-yl]piperazin-1-yl]methyl]pyrrolidin-1-yl]-N-[4-methoxy-6-(pyrazol-1-ylmethyl)-1,2-benzoxazol-3-yl]benzenesulfonamide] | 10 to 100 | 50 to 75 | 50 to 75
5 | COc1cc(Cn2cccn2)cc2onc(NS(=O)(=O)c3cccc(N4CCN(CC5CCN(c6ccc7c(c6)C(=O)N(C6CCC(=O)NC6=O)C7=O)C5)CC4)c3)c12 (stereo not shown) [Example 1, N-(6-((1H-Pyrazol-1-yl)methyl)-4-methoxybenzo[d]isoxazol-3-yl)-3-(4-((1-(2-(2,6-dioxopiperidin-3-yl)-1,3-dioxoisoindolin-5-yl)pyrrolidin-3-yl)methyl)piperazin-1-yl)benzenesulfonamide] | 100 to 1000 | 50 to 75 | 50 to 75
6 | COc1cc(Cn2cccn2)cc2onc(NS(=O)(=O)c3cccc(N4CCN(CCCC5CCN(c6ccc7c(c6)C(=O)N(C6CCC(=O)NC6=O)C7=O)CC5)CC4)c3)c12 (stereo not shown) [Example 2, N-(6-((1H-Pyrazol-1-yl)methyl)-4-methoxybenzo[d]isoxazol-3-yl)-3-(4-(3-(1-(2-(2,6-dioxopiperidin-3-yl)-1,3-dioxoisoindolin-5-yl)piperidin-4-yl)propyl)piperazin-1-yl)benzenesulfonamide] | – | 25 to 50 | 50 to 75
7 | COc1cc(Cn2cccn2)cc2onc(NS(=O)(=O)c3cccc(N4CCN(CCC5CCN(c6ccc7c(c6)C(=O)N(C6CCC(=O)NC6=O)C7=O)C5)CC4)c3)c12 (stereo not shown) [Example 9, 3-[4-[2-[1-[2-(2,6-Dioxopiperidin-3-yl)-1,3-dioxoisoindol-5-yl]pyrrolidin-3-yl]ethyl]piperazin-1-yl]-N-[4-methoxy-6-(pyrazol-1-ylmethyl)-1,2-benzoxazol-3-yl]benzenesulfonamide] | 10 to 100 | 50 to 75 | 0 to 50

The next lines start with the values.

Row | DC50 (HiBit tagged KAT6A) [nM] | Dmax (HiBit tagged KAT6A) [%] | inhibition at 0.1 µM (KAT6A) [%] | SMILES
8 | < 10 | > 75 | > 75 | COc1cc(Cn2cccn2)cc2onc(NS(=O)(=O)c3cccc(N4CCN(CC5CCN(CC6CCN(c7ccc8c(c7)C(=O)N(C7CCC(=O)NC7=O)C8=O)CC6)CC5)CC4)c3)c12 (stereo not shown) [Example 7, 3-[4-[[1-[[1-[2-(2,6-Dioxopiperidin-3-yl)-1,3-dioxoisoindol-5-yl]piperidin-4-yl]methyl]piperidin-4-yl]methyl]piperazin-1-yl]-N-[4-methoxy-6-(pyrazol-1-ylmethyl)-1,2-benzoxazol-3-yl]benzenesulfonamide]
9 | 10 to 100 | 50 to 75 | 0 to 50 | COc1cc(Cn2cccn2)cc2onc(NS(=O)(=O)c3cccc(N4CCN(CCC5CCN(c6ccc7c(c6)C(=O)N(C6CCC(=O)NC6=O)C7=O)CC5)CC4)c3)c12 (stereo not shown) [Example 3, N-(6-((1H-Pyrazol-1-yl)methyl)-4-methoxybenzo[d]isoxazol-3-yl)-3-(4-(2-(1-(2-(2,6-dioxopiperidin-3-yl)-1,3-dioxoisoindolin-5-yl)piperidin-4-yl)ethyl)piperazin-1-yl)benzenesulfonamide]
10 | 10 to 100 | 50 to 75 | > 75 | COc1cc(Cn2cccn2)cc2onc(NS(=O)(=O)c3cccc(N4CCN(C5CC6(CCN(c7ccc8c(c7)C(=O)N(C7CCC(=O)NC7=O)C8=O)C6)C5)CC4)c3)c12 (stereo not shown) [Example 8, 3-[4-[6-[2-(2,6-Dioxopiperidin-3-yl)-1,3-dioxoisoindol-5-yl]-6-azaspiro[3.4]octan-2-yl]piperazin-1-yl]-N-[4-methoxy-6-(pyrazol-1-ylmethyl)-1,2-benzoxazol-3-yl]benzenesulfonamide]
11 | < 10 | > 75 | > 75 | COc1cc(Cn2cccn2)cc2onc(NS(=O)(=O)c3cccc(N4CC5(CCN(CC6CCN(c7ccc8c(c7)C(=O)N(C7CCC(=O)NC7=O)C8=O)C6)CC5)C4)c3)c12 (stereo not shown) [Example 5, 3-[7-[[1-[2-(2,6-Dioxopiperidin-3-yl)-1,3-dioxoisoindol-5-yl]pyrrolidin-3-yl]methyl]-2,7-diazaspiro[3.5]nonan-2-yl]-N-[4-methoxy-6-(pyrazol-1-ylmethyl)-1,2-benzoxazol-3-yl]benzenesulfonamide]
